Measurements published in patent US6479435B1, “Diaryl ethers and processes for their preparation and herbicidal and desiccant compositions containing them” (ISK Americas Incorporated, priority 1997, dated 2002).

Columns and labels:
Assay type in all cases: in vivo
[1] = tested on: Johnsongrass (Sorghum halepense, SORHA); experiment: Pre-emerge greenhouse herbicide test, phytotoxicity rating; details: 14 days after application, rating scale 0-100
Method in brief: (§1)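 Seeds sown in sandy loam one day before track-sprayer application of acetone solutions at 125–1000 g ai/ha (187 l/ha), then surface-watered to incorporate and bottom-watered. Injury scored visually at 14 days on a 0–100 scale (0 no damage, 100 complete death).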

[2] = tested on: barnyardgrass (Echinochloa crusgalli, ECHCG); experiment: as above; details: 14 days after application, rating scale 0-100
Method in brief: as §1

[3] = tested on: common ragweed (Ambrosia artemisiifolia L., AMBEL); experiment: as above; details: 14 days after application, rating scale 0-100
Method in brief: as §1

[4] = tested on: green foxtail (Setaria viridis, SETVI); experiment: as above; details: 14 days after application, rating scale 0-100
Method in brief: as §1

[5] = tested on: ivyleaf morningglory (Ipomoea hederacea, IPOHE); experiment: as above; details: 14 days after application, rating scale 0-100
Method in brief: as §1

[6] = tested on: lambsquarters (Chenopodium album, CHEAL); experiment: as above; details: 14 days after application, rating scale 0-100
Method in brief: as §1

[7] = tested on: large crabgrass (Digitaria sanguinalis, DIGSA); experiment: as above; details: 14 days after application, rating scale 0-100
Method in brief: as §1

[8] = tested on: redroot pigweed (Amaranthus retroflexus, AMARE); experiment: as above; details: 14 days after application, rating scale 0-100
Method in brief: as §1

[9] = tested on: sicklepod (Cassia obtusifolia, CASOB); experiment: as above; details: 14 days after application, rating scale 0-100
Method in brief: as §1

[10] = tested on: velvetleaf (Abutilon theophrasti, ABUTH); experiment: as above; details: 14 days after application, rating scale 0-100
Method in brief: as §1

[11] = tested on: field corn (Zea mays L., var. Dekalb 535, CORN); experiment: Pre-emerge greenhouse test, crop damage rating; details: 14 days after application, rating scale 0-100
Method in brief: as §1

[12] = tested on: upland rice (Oryza sp., var.Tebonnet, RICE); experiment: Pre-emerge greenhouse test, crop damage rating; details: 14 days after application, rating scale 0-100
Method in brief: as §1

[13] = tested on: soybean (Glycine max L., var. Pella 86, SOY); experiment: Pre-emerge greenhouse test, crop damage rating; design: key to SOY crop damage rating: 0 = no damage, 100 = complete death of all plants; details: 14 days after application, rating scale 0-100
Method in brief: as §1

[14] = tested on: common ragweed (Ambrosia artemisiifolia L., AMBEL); experiment: Post-emerge greenhouse herbicide test, phytotoxicity rating; details: 14 days after application, scale 0-100
Method in brief: (§2)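 Plants at the 2-3 leaf stage, sown 8-21 days earlier, were track-sprayed post-emergence with compound in acetone plus 0.25% v/v non-ionic surfactant at 63-1000 g ai/ha (187 l/ha). Damage was rated at 14 days on a 0-100 scale (0 none, 100 all plants dead), for both crop injury and weed control.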

[15] = tested on: Johnsongrass (Sorghum halepense, SORHA); experiment: as above; details: 14 days after application, scale 0-100
Method in brief: as §2

[16] = tested on: barnyardgrass (Echinochloa crusgalli, ECHCG); experiment: as above; details: 14 days after application, scale 0-100
Method in brief: as §2

[17] = tested on: green foxtail (Setaria viridis, SETVI); experiment: as above; details: 14 days after application, scale 0-100
Method in brief: as §2

[18] = tested on: ivyleaf morningglory (Ipomoea hederacea, IPOHE); experiment: as above; details: 14 days after application, scale 0-100
Method in brief: as §2

[19] = tested on: lambsquarters (Chenopodium album, CHEAL); experiment: as above; details: 14 days after application, scale 0-100
Method in brief: as §2

[20] = tested on: large crabgrass (Digitaria sanguinalis, DIGSA); experiment: as above; details: 14 days after application, scale 0-100
Method in brief: as §2

[21] = tested on: redroot pigweed (Amaranthus retroflexus, AMARE); experiment: as above; details: 14 days after application, scale 0-100
Method in brief: as §2

[22] = tested on: sicklepod (Cassia obtusifolia, CASOB); experiment: as above; details: 14 days after application, scale 0-100
Method in brief: as §2

[23] = tested on: velvetleaf (Abutilon theophrasti, ABUTH); experiment: as above; details: 14 days after application, scale 0-100
Method in brief: as §2

[24] = tested on: field corn (Zea mays L., var. Dekalb 535, CORN); experiment: Post-emerge greenhouse test, crop damage rating; details: 14 days after application, scale 0-100
Method in brief: as §2

[25] = tested on: upland rice (Oryza sp., var.Tebonnet, RICE); experiment: Post-emerge greenhouse test, crop damage rating; details: 14 days after application, scale 0-100
Method in brief: as §2

[26] = tested on: soybean (Glycine max L., var. Pella 86, SOY); experiment: Post-emerge greenhouse test, crop damage rating; design: key to crop damage rating SOY: 0-100 scale: 0 = no damage, 100 = complete death of all plants; details: 14 days after application, scale 0-100
Method in brief: as §2

O=c1n(-c2cc(Oc3cccc(F)n3)c(Cl)cc2F)c(=S)n2n1CCCC2 [Compound 8-25]
40: ECHCG phytotoxicity rating ([2]; Rate 125 g al/ha) | AMBEL phytotoxicity rating ([3]; Rate 125 g al/ha) | CORN crop damage rating ([11]; Rate 500 g al/ha) | phytotoxicity rating SORHA ([15]; rate 63 g ai/ha) | phytotoxicity rating DIGSA ([20]; rate 500 g ai/ha)
20: IPOHE phytotoxicity rating ([5]; Rate 125 g al/ha) | IPOHE phytotoxicity rating ([5]; Rate 500 g al/ha) | SOY crop damage rating ([13]; Rate 500 g al/ha) | phytotoxicity rating ECHCG ([16]; rate 63 g ai/ha)
80: phytotoxicity rating SETVI ([17]; rate 63 g ai/ha)
95: phytotoxicity rating SETVI ([17]; rate 500 g ai/ha)
60: phytotoxicity rating SORHA ([15]; rate 500 g ai/ha) | crop damage rating RICE ([25]; rate 500 g ai/ha)
10: phytotoxicity rating DIGSA ([20]; rate 63 g ai/ha) | crop damage rating CORN ([24]; rate 63 g ai/ha) | crop damage rating RICE ([25]; rate 63 g ai/ha)
15: RICE crop damage rating ([12]; Rate 125 g al/ha)
90: SORHA phytotoxicity rating ([1]; Rate 500 g al/ha) | AMBEL phytotoxicity rating ([3]; Rate 500 g al/ha) | phytotoxicity rating AMBEL ([14]; rate 63 g ai/ha) | phytotoxicity rating AMBEL ([14]; rate 500 g ai/ha) | phytotoxicity rating CHEAL ([19]; rate 63 g ai/ha) | crop damage rating SOY ([26]; rate 500 g ai/ha)
65: phytotoxicity rating ECHCG ([16]; rate 500 g ai/ha)
25: crop damage rating CORN ([24]; rate 500 g ai/ha)
0: CORN crop damage rating ([11]; Rate 125 g al/ha) | SOY crop damage rating ([13]; Rate 125 g al/ha)
100: ECHCG phytotoxicity rating ([2]; Rate 500 g al/ha) | SETVI phytotoxicity rating ([4]; Rate 125 g al/ha) | SETVI phytotoxicity rating ([4]; Rate 500 g al/ha) | CHEAL phytotoxicity rating ([6]; Rate 125 g al/ha) | CHEAL phytotoxicity rating ([6]; Rate 500 g al/ha) | DIGSA phytotoxicity rating ([7]; Rate 500 g al/ha) | AMARE phytotoxicity rating ([8]; Rate 125 g al/ha) | AMARE phytotoxicity rating ([8]; Rate 500 g al/ha) | CASOB phytotoxicity rating ([9]; Rate 500 g al/ha) | ABUTH phytotoxicity rating ([10]; Rate 125 g al/ha) | ABUTH phytotoxicity rating ([10]; Rate 500 g al/ha) | phytotoxicity rating IPOHE ([18]; rate 63 g ai/ha) | phytotoxicity rating IPOHE ([18]; rate 500 g ai/ha) | phytotoxicity rating CHEAL ([19]; rate 500 g ai/ha) | phytotoxicity rating AMARE ([21]; rate 63 g ai/ha) | phytotoxicity rating AMARE ([21]; rate 500 g ai/ha) | phytotoxicity rating CASOB ([22]; rate 500 g ai/ha) | phytotoxicity rating ABUTH ([23]; rate 63 g ai/ha) | phytotoxicity rating ABUTH ([23]; rate 500 g ai/ha)
70: SORHA phytotoxicity rating ([1]; Rate 125 g al/ha) | CASOB phytotoxicity rating ([9]; Rate 125 g al/ha) | RICE crop damage rating ([12]; Rate 500 g al/ha) | phytotoxicity rating CASOB ([22]; rate 63 g ai/ha) | crop damage rating SOY ([26]; rate 63 g ai/ha)
85: DIGSA phytotoxicity rating ([7]; Rate 125 g al/ha)

O=c1n(-c2cc(Oc3cccc(Cl)n3)c(Cl)cc2F)c(=S)n2n1CCCC2 [Compound 8-26]
0: SORHA phytotoxicity rating ([1]; Rate 500 g al/ha) | ECHCG phytotoxicity rating ([2]; Rate 500 g al/ha) | AMBEL phytotoxicity rating ([3]; Rate 500 g al/ha) | SETVI phytotoxicity rating ([4]; Rate 500 g al/ha) | IPOHE phytotoxicity rating ([5]; Rate 500 g al/ha) | CHEAL phytotoxicity rating ([6]; Rate 500 g al/ha) | DIGSA phytotoxicity rating ([7]; Rate 500 g al/ha) | AMARE phytotoxicity rating ([8]; Rate 500 g al/ha) | CASOB phytotoxicity rating ([9]; Rate 500 g al/ha) | ABUTH phytotoxicity rating ([10]; Rate 500 g al/ha) | CORN crop damage rating ([11]; Rate 500 g al/ha) | RICE crop damage rating ([12]; Rate 500 g al/ha) | SOY crop damage rating ([13]; Rate 500 g al/ha) | phytotoxicity rating AMBEL ([14]; rate 500 g ai/ha) | phytotoxicity rating SORHA ([15]; rate 500 g ai/ha) | phytotoxicity rating ECHCG ([16]; rate 500 g ai/ha) | phytotoxicity rating SETVI ([17]; rate 500 g ai/ha) | phytotoxicity rating IPOHE ([18]; rate 500 g ai/ha) | phytotoxicity rating CHEAL ([19]; rate 500 g ai/ha) | phytotoxicity rating DIGSA ([20]; rate 500 g ai/ha) | phytotoxicity rating AMARE ([21]; rate 500 g ai/ha) | phytotoxicity rating CASOB ([22]; rate 500 g ai/ha) | phytotoxicity rating ABUTH ([23]; rate 500 g ai/ha) | crop damage rating CORN ([24]; rate 500 g ai/ha) | crop damage rating RICE ([25]; rate 500 g ai/ha) | crop damage rating SOY ([26]; rate 500 g ai/ha)
